# Reference: patent publication US20110086762A1, “4'4'-Dioxaspiro-Spirocyclically Substituted Tetramates” (Bayer CropScience AG, priority 2008, published 2011)
# How the values were obtained:
# Tetranychus urticae [1] = assay: Tetranychus test, OP-resistant (bean plants); format: in vivo, greenhouse red spider mite (Tetranychus urticae); conditions: TETRUR, active compound conc. 4 ppm
# Method: (§1) Solvent: 7 parts by weight of dimethylformamide Emulsifier: 2 parts by weight of alkylaryl polyglycol ether To produce a suitable preparation of active compound, 1 part by weight of active compound is mixed with the stated amounts of solvent and emulsifier, and the concentrate is diluted with emulsifier-containing water to the desired concentration. If the addition of ammonium salts, penetrant or ammonium salts and penetrant is required, these are pipetted in at a concentration of 1000 ppm after dilution of the respective finished solution of the preparation. Bean plants (Phaseolus vulgaris) which are heavily infested by all stages of the greenhouse red spider mite (Tetranychus urticae) are treated by spraying with the active compound preparation of the desired concentration. After the desired period of time, the effect in % is determined. Here, 100% means that all of the spider mites have been killed; 0% means that none of the spider mites have been killed.
# Myzus persicae = Myzus persicae test MYZUPE (bell pepper plants); format: in vivo, green peach aphid (Myzus persicae)
# Method: as §1, with “Bell pepper” for “Bean”, “(Capsicum annuum)” for “(Phaseolus vulgaris)”, “by” for “by all stages of”, “green peach aphid (Myzus persicae)” for “greenhouse red spider mite (Tetranychus urticae)”, “kill” for “effect”, “animals” for “spider mites”
# Aphis gossypii [2] = assay: Aphis gossypii test, APHIGO spray treatment (cotton leaves); format: in vivo, cotton aphid (Aphis gossypii); conditions: active compound conc. 0.8 ppm
# Method: Solvent: 7 parts by weight of dimethylformamide Emulsifier: 2 parts by weight of alkylaryl polyglycol ether To produce a suitable preparation of active compound, 1 part by weight of active compound is mixed with the stated amounts of solvent and emulsifier, and the concentrate is diluted with emulsifier-containing water to the desired concentration. If the addition of ammonium salts, penetrant or ammonium salts and penetrant is required, these are pipetted in at a concentration of 1000 ppm after dilution of the respective finished solution of the preparation. Cotton leaves (Gossypium hirsutum) which are heavily infested by the cotton aphid (Aphis gossypii) are sprayed with an active compound preparation of the desired concentration. After the desired period of time, the kill in % is determined. Here, 100% means that all of the aphids have been killed; 0% means that none of the aphids have been killed.
# [3] = Penetration of active compounds through enzymatically isolated cuticles of apple leaves; format: in vitro ADME, apple trees of the Golden Delicious variety; conditions: apple leaf cuticles, 20° C., 60% rh, average of 8 to 10 measurements
# Excerpt: Boosting of penetration into the plant by ammonium salts or phosphonium salts, and synergistic boosting of penetration into the plant by ammonium/phosphonium salts in combination with penetration promoters This test measured the penetration of active compounds through enzymatically isolated cuticles of apple leaves. The leaves used were cut in the fully developed state from apple trees of the Golden Delicious variety. The cuticles were isolated as follows: • first of all, leaf discs labelled on the underside with dye and formed by punching were filled by means of vacuum infiltration with a pectinase solution (0.2% to 2% strength) buffered to a pH of between 3 and 4, • sodium azide was then added and • the leaf discs thus treated were left to stand until the original leaf structure broke down and the non-cellular cuticle underwent detachment. After that, only those cuticles from the top leaf sides that were free from stomata and hairs were used further. They were washed a number of times in alternation with water and with a buffer solution, pH 7. […] Penetration was determined by applying 10 μl of the spray liquor of the composition below to the outer side of each of the cuticles. […] At regular intervals, samples were taken using an autosampler, and the amount of active compound was determined using HPLC. […]
# Aphis gossypii [4] = assay: Example C-2: plot trial on cotton 'Fibermax' against Aphis gossypii; format: in vivo; conditions: 105 g a.i./ha, standard (SC 050)
# Method: In plots of a size of 10 m^2, cotton plants of the cultivar “Fibermax” are treated in three replications against Aphis gossypii using a pressure-operated knapsack sprayer (2.5 bar). Here, the active compound A.5 is applied as SC050 and SL050 at the stated application rate in a tank mix of 1 g/l of ammonium sulphate and 1 g/l of a.i. rapeseed oil methyl ester EW 500 in comparison to the standard imidacloprid (SC 050) using an application rate of 300 l of water/ha. Evaluation is carried out 3, 6, 9, 13 and 17 days after the application by counting the number of live animals on the leaves. Subsequently, the efficacy in percent is calculated according to Henderson and Tilton.
# Tetranychus urticae [5] = assay: Example C-3: plot trial on cotton 'Fibermax 977' against Tetranychus urticae; format: in vivo; conditions: 9 g a.i./ha, standard (EC 018), two applications 8 days apart
# Method: In plots of a size of 15 m^2, cotton plants of the cultivar “Fibermax 977” are treated in three replications against Tetranychus urticae using a pressure-operated knapsack sprayer (4 bar). Here, the active compound A.5 is applied as SC050 and SL050 at the stated application rate in a tank mix of 1 g/l of ammonium sulphate and 1 g/l of a.i. rapeseed oil methyl ester EW 500 and the standard abamectin (EC 018) using an application rate of in each case 300 l of water/ha. Two applications are carried out at an interval of 8 days. Evaluation is carried out 3, 7, 11 and 15 days after the first application by scoring the kill of the spider mites on the leaves.
molecule,measurement,setting,value
Cc1cc(C)c(C2=C(O)C3(CCC4(CC3)OCCO4)NC2=O)c(C)c1 [A.2],% effect after 7 d,Tetranychus urticae [1],70%
same,% effect after 7 d,Myzus persicae; active compound conc. 0.8 ppm,90%
Cc1cc(C)c(C2=C(O)C3(CCC4(CC3)OCCO4)NC2=O)c(C)c1 [A.3],% effect after 7 d,Aphis gossypii [2],75%
same,% effect after 7 d,Myzus persicae; active compound conc. 0.8 ppm,75%
Cc1cc(Cl)cc(C)c1C1=C(O)C2(CCC3(CC2)OCCO3)NC1=O [A.4],% effect after 7 d,Myzus persicae; active compound conc. 10 ppm,100%
Cc1cc(Cl)cc(C)c1C1=C(O)C2(CCC3(CC2)OCCO3)NC1=O [A.6],% effect after 7 d,Myzus persicae; active compound conc. 10 ppm,95%
"Cc1cc(Cl)cc(C)c1C1C(=O)NC2(CCC3(CC2)OCCO3)C1=O (stereo not shown) [Ex. I-1-a-4, 8,8′-ethylenedioxy-3-[(2,6-dimethyl-4-chloro)-phenyl]-1-azaspiro[4,5]-decane-2,4-dione]",% effect after 7 d,Myzus persicae; active compound conc. 10 ppm,75%
Cc1cc(C)c(C2=C(O)C3(CCC4(CC3)OCCO4)NC2=O)c(C)c1.[K+] [Example A.1],% effect after 7 d,Myzus persicae; active compound conc. 0.8 ppm,75%
Cc1cc(Cl)cc(C)c1C1=C(O)C2(CCC3(CC2)OCCO3)NC1=O [Example A.5],Penetration after 24 h,[3]; SC 050 + RME (1 g/l) + AS (1 g/l),3%
same,Penetration after 24 h,[3]; SL 050 + RME (1 g/l) + AS (1 g/l),7%
O=[N+]([O-])NC1=NCCN1Cc1ccc(Cl)nc1 [imidacloprid],Efficacy (% H + T) Aphis gossypii 3 d,Aphis gossypii [4]; 3 d,78.1%
same,Efficacy (% H + T) Aphis gossypii 6 d,Aphis gossypii [4]; 6 d,84.1%
same,Efficacy (% H + T) Aphis gossypii 9 d,Aphis gossypii [4]; 9 d,83.7%
same,Efficacy (% H + T) Aphis gossypii 13 d,Aphis gossypii [4]; 13 d,82.0%
same,Efficacy (% H + T) Aphis gossypii 17 d,Aphis gossypii [4]; 17 d,64.7%
abamectin,Effect Abbott (%) Tetranychus urticae 3 d,Tetranychus urticae [5]; 3 d after first application,49.3%
same,Effect Abbott (%) Tetranychus urticae 7 d,Tetranychus urticae [5]; 7 d after first application,27.2%
same,Effect Abbott (%) Tetranychus urticae 11 d,Tetranychus urticae [5]; 11 d after first application,5.8%
same,Effect Abbott (%) Tetranychus urticae 15 d,Tetranychus urticae [5]; 15 d after first application,40.7%
